# Assay results from article PMC12675537, “Molecular basis for multidrug efflux by an anaerobic-associated RND transporter” (Nature Communications, 2025).
# T1: MdtF (Escherichia coli, UniProt P37637, V610F)
# T1 construct: MdtF-6xHis (C-terminal His tag) in SMALP native-lipid nanodiscs; homotrimer
# T1 sequence (P37637 1-1037 V610F): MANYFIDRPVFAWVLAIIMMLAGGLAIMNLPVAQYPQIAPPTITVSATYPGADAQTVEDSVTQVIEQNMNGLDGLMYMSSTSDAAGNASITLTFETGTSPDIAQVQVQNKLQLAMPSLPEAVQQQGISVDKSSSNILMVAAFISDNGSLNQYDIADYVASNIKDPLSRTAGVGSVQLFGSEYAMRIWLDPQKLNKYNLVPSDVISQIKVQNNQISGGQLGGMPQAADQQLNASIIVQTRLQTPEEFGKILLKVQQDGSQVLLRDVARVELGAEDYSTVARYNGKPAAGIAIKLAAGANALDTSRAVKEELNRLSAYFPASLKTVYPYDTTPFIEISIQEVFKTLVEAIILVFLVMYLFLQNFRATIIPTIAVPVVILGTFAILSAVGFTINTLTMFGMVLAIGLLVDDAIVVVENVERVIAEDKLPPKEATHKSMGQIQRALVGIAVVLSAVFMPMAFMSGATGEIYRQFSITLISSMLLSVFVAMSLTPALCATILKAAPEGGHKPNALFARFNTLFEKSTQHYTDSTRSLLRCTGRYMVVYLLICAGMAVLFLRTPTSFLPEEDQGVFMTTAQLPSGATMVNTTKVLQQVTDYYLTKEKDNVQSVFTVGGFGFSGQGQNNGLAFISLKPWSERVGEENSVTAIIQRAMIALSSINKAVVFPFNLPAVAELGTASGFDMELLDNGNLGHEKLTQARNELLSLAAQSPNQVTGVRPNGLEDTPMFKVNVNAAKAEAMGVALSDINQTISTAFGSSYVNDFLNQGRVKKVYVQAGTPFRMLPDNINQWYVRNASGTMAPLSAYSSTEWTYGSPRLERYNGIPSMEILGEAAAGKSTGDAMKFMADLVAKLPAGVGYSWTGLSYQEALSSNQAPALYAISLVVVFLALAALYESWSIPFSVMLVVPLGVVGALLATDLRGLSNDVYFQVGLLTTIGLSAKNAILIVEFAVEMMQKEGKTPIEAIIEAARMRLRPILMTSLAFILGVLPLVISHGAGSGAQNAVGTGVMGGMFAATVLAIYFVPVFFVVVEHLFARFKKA
# Tests used:
# MdtF [1] = biological target: T2, MdtF (Escherichia coli, UniProt P37637); assay: fluorescence polarisation; thermal stabilisation (CD, DSC, nanoDSF); format: binding
# T2 construct: MdtF-6xHis (C-terminal His tag) in SMALP native-lipid nanodiscs; homotrimer
# MdtF [2] = biological target: T1, MdtF; assay: fluorescence polarisation Kd; thermal stabilisation (CD, DSC, nanoDSF); format: binding
# cryo-EM structure = biological target: the molecule itself; assay: cryo-EM structure
molecule,measurement,setting,value
"CC/N=c1\cc2oc3cc(NCC)c(C)cc3c(-c3ccccc3C(=O)OCC)c-2cc1C [R6G, Rhodamine 6G]",Kd,MdtF [1],390 ± 90 nM
same,Kd,MdtF [2],720 ± 90 nM
"Escherichia coli multidrug transporter MdtF, wild type (MdtF-6xHis) in SMA lipid particles (natural protein, also called MdtF^WT; apo-MdtF^WT; source: E. coli C43(DE3) ΔacrAB, extracted from membranes with SMA 2000 into SMALPs, purified (Ni-NTA, SEC)) MANYFIDRPVFAWVLAIIMMLAGGLAIMNLPVAQYPQIAPPTITVSATYPGADAQTVEDSVTQVIEQNMNGLDGLMYMSSTSDAAGNASITLTFETGTSPDIAQVQVQNKLQLAMPSLPEAVQQQGISVDKSSSNILMVAAFISDNGSLNQYDIADYVASNIKDPLSRTAGVGSVQLFGSEYAMRIWLDPQKLNKYNLVPSDVISQIKVQNNQISGGQLGGMPQAADQQLNASIIVQTRLQTPEEFGKILLKVQQDGSQVLLRDVARVELGAEDYSTVARYNGKPAAGIAIKLAAGANALDTSRAVKEELNRLSAYFPASLKTVYPYDTTPFIEISIQEVFKTLVEAIILVFLVMYLFLQNFRATIIPTIAVPVVILGTFAILSAVGFTINTLTMFGMVLAIGLLVDDAIVVVENVERVIAEDKLPPKEATHKSMGQIQRALVGIAVVLSAVFMPMAFMSGATGEIYRQFSITLISSMLLSVFVAMSLTPALCATILKAAPEGGHKPNALFARFNTLFEKSTQHYTDSTRSLLRCTGRYMVVYLLICAGMAVLFLRTPTSFLPEEDQGVFMTTAQLPSGATMVNTTKVLQQVTDYYLTKEKDNVQSVFTVGGFGFSGQGQNNGLAFISLKPWSERVGEENSVTAIIQRAMIALSSINKAVVFPFNLPAVAELGTASGFDMELLDNGNLGHEKLTQARNELLSLAAQSPNQVTGVRPNGLEDTPMFKVNVNAAKAEAMGVALSDINQTISTAFGSSYVNDFLNQGRVKKVYVQAGTPFRMLPDNINQWYVRNASGTMAPLSAYSSTEWTYGSPRLERYNGIPSMEILGEAAAGKSTGDAMKFMADLVAKLPAGVGYSWTGLSYQEALSSNQAPALYAISLVVVFLALAALYESWSIPFSVMLVVPLGVVGALLATDLRGLSNDVYFQVGLLTTIGLSAKNAILIVEFAVEMMQKEGKTPIEAIIEAARMRLRPILMTSLAFILGVLPLVISHGAGSGAQNAVGTGVMGGMFAATVLAIYFVPVFFVVVEHLFARFKKA",stoichiometry N,cryo-EM structure,3
"Escherichia coli multidrug transporter MdtF with the single-point mutation V610F (MdtF-6xHis) in SMA lipid particles (natural protein, also called MdtF^V610F; apo-MdtF^V610F; source: E. coli C43(DE3) ΔacrAB, extracted from membranes with SMA 2000 into SMALPs, purified (Ni-NTA, SEC)) MANYFIDRPVFAWVLAIIMMLAGGLAIMNLPVAQYPQIAPPTITVSATYPGADAQTVEDSVTQVIEQNMNGLDGLMYMSSTSDAAGNASITLTFETGTSPDIAQVQVQNKLQLAMPSLPEAVQQQGISVDKSSSNILMVAAFISDNGSLNQYDIADYVASNIKDPLSRTAGVGSVQLFGSEYAMRIWLDPQKLNKYNLVPSDVISQIKVQNNQISGGQLGGMPQAADQQLNASIIVQTRLQTPEEFGKILLKVQQDGSQVLLRDVARVELGAEDYSTVARYNGKPAAGIAIKLAAGANALDTSRAVKEELNRLSAYFPASLKTVYPYDTTPFIEISIQEVFKTLVEAIILVFLVMYLFLQNFRATIIPTIAVPVVILGTFAILSAVGFTINTLTMFGMVLAIGLLVDDAIVVVENVERVIAEDKLPPKEATHKSMGQIQRALVGIAVVLSAVFMPMAFMSGATGEIYRQFSITLISSMLLSVFVAMSLTPALCATILKAAPEGGHKPNALFARFNTLFEKSTQHYTDSTRSLLRCTGRYMVVYLLICAGMAVLFLRTPTSFLPEEDQGVFMTTAQLPSGATMVNTTKVLQQVTDYYLTKEKDNVQSVFTFGGFGFSGQGQNNGLAFISLKPWSERVGEENSVTAIIQRAMIALSSINKAVVFPFNLPAVAELGTASGFDMELLDNGNLGHEKLTQARNELLSLAAQSPNQVTGVRPNGLEDTPMFKVNVNAAKAEAMGVALSDINQTISTAFGSSYVNDFLNQGRVKKVYVQAGTPFRMLPDNINQWYVRNASGTMAPLSAYSSTEWTYGSPRLERYNGIPSMEILGEAAAGKSTGDAMKFMADLVAKLPAGVGYSWTGLSYQEALSSNQAPALYAISLVVVFLALAALYESWSIPFSVMLVVPLGVVGALLATDLRGLSNDVYFQVGLLTTIGLSAKNAILIVEFAVEMMQKEGKTPIEAIIEAARMRLRPILMTSLAFILGVLPLVISHGAGSGAQNAVGTGVMGGMFAATVLAIYFVPVFFVVVEHLFARFKKA",binding result,cryo-EM structure,binds
